Results reported in ChEMBL document CHEMBL1909046, “DrugMatrix in vitro pharmacology data”.

Columns and labels:
[1] = target: 5-hydroxytryptamine receptor 6 (Homo sapiens, UniProt P50406); type: cell membranes, HeLa, Membrane; details: hela; further: in other assays of this panel Not Active means under 50% inhibition at 10 µM
[2] = DRUGMATRIX: Glutamate, Kainate radioligand binding (ligand: [3H] Kainic acid); type: cell membranes, Rattus norvegicus, Wistar, Brain, Membrane; details: Not Active = under 50% inhibition at 10 µM
Thromboxane-A synthase = target: T1, Thromboxane-A synthase (Homo sapiens, UniProt P24557); assay: biochemical; type: tissue-based, Platelet; details: platelet;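 further: enzyme inhibition assay with PGH2 supplied as substrate; in other assays of this panel Not Active means under 50% inhibition at 10 µM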
T1 sequence (P24557 whole entry): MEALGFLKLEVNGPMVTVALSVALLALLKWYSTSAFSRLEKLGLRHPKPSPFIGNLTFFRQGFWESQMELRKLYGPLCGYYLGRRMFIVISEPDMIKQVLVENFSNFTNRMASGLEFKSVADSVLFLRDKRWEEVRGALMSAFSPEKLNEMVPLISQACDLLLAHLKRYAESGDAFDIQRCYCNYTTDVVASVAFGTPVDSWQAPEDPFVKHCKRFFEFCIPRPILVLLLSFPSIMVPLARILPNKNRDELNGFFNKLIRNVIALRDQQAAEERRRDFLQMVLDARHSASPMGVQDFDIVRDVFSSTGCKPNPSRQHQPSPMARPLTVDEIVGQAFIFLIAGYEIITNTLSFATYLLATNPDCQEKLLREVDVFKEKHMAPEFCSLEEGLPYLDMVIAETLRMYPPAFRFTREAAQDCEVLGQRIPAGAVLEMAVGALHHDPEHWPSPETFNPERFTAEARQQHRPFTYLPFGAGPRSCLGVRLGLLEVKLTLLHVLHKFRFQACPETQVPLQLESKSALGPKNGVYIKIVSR

D(4) dopamine receptor = target: T2, D(4) dopamine receptor (Homo sapiens, UniProt P21917); assay: DRUGMATRIX: Dopamine D4.2 radioligand binding (ligand: [3H] Spiperone); type: cell membranes, CHO-K1, Membrane; details: cho-k1; Not Active = under 50% inhibition at 10 µM
T2 sequence (P21917 whole entry): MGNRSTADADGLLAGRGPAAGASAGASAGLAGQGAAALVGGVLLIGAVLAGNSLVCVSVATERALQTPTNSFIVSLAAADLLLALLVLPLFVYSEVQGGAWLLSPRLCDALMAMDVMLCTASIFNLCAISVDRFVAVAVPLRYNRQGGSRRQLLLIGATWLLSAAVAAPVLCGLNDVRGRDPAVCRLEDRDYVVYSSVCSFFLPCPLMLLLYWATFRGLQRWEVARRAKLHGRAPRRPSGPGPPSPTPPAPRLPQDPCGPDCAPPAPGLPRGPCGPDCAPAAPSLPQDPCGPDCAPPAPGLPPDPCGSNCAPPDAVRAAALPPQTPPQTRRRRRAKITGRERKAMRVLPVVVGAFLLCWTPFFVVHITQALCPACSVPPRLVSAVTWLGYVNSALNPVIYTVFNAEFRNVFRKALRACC

[3] = DRUGMATRIX: Glutamate, AMPA radioligand binding (ligand: [3H] AMPA); type: cell membranes, Rattus norvegicus, Wistar, Cerebral cortex, Membrane; details: Not Active = under 50% inhibition at 10 µM
[4] = target: T3, C-X-C chemokine receptor type 1 (Homo sapiens, UniProt P25024); further: in other assays of this panel Not Active means under 50% inhibition at 10 µM
T3 sequence (P25024 whole entry): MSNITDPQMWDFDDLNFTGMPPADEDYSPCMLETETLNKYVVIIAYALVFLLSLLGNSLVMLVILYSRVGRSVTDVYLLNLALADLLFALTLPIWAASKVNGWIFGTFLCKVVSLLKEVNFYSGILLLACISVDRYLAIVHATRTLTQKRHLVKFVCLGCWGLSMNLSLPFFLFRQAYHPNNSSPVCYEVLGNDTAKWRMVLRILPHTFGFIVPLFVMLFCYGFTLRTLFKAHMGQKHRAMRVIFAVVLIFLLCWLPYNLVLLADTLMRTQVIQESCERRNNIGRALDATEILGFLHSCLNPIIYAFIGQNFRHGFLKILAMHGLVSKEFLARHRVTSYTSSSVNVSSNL

Glycine receptor = Glycine receptor (Rattus norvegicus, UniProt P22771+P24524+P07727+P20781); type: cell membranes, Wistar, Spinal cord, Membrane; further: in other assays of this panel Not Active means under 50% inhibition at 10 µM
D(3) dopamine receptor = D(3) dopamine receptor (Homo sapiens, UniProt P35462); assay: DRUGMATRIX: Dopamine D3 radioligand binding (ligand: [3H] Spiperone); type: cell membranes, CHO, Membrane; details: cho
D(3) dopamine receptor, sequence (P35462 whole entry): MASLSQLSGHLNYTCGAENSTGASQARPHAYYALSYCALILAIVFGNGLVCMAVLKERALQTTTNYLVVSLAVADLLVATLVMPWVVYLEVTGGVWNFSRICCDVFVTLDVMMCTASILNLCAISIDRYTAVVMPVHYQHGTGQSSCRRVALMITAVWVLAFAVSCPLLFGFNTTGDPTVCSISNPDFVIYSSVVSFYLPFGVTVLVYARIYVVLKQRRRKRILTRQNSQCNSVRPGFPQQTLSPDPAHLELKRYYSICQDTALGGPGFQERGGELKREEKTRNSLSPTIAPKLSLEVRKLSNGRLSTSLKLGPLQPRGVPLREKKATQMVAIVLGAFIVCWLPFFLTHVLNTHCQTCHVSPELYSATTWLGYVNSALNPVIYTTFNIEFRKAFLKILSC

[5] = target: Beta-3 adrenergic receptor (Homo sapiens, UniProt P13945); assay: DRUGMATRIX: Adrenergic beta3 radioligand binding (ligand: [125I] Cyanopindolol); type: cell membranes, HEK293, Membrane; details: hek293; Not Active = under 50% inhibition at 10 µM
Beta-3 adrenergic receptor, sequence (P13945 whole entry): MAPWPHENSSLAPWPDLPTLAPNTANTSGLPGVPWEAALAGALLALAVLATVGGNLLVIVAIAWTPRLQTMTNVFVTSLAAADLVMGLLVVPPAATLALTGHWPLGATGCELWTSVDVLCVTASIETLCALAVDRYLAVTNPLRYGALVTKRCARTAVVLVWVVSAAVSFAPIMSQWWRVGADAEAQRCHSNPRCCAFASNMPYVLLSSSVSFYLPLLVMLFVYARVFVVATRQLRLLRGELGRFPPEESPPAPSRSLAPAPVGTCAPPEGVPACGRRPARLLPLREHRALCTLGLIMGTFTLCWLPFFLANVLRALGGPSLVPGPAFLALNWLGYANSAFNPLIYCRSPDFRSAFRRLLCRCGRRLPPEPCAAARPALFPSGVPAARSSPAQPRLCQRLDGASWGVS

[6] = target: Sodium-dependent noradrenaline transporter (Homo sapiens, UniProt P23975); assay: DRUGMATRIX: Norepinephrine Transporter radioligand binding (ligand: [125I] RTI-55); type: cell membranes, MDCK, Membrane; details: mdck; Not Active = under 50% inhibition at 10 µM
Sodium-dependent noradrenaline transporter, sequence (P23975 whole entry): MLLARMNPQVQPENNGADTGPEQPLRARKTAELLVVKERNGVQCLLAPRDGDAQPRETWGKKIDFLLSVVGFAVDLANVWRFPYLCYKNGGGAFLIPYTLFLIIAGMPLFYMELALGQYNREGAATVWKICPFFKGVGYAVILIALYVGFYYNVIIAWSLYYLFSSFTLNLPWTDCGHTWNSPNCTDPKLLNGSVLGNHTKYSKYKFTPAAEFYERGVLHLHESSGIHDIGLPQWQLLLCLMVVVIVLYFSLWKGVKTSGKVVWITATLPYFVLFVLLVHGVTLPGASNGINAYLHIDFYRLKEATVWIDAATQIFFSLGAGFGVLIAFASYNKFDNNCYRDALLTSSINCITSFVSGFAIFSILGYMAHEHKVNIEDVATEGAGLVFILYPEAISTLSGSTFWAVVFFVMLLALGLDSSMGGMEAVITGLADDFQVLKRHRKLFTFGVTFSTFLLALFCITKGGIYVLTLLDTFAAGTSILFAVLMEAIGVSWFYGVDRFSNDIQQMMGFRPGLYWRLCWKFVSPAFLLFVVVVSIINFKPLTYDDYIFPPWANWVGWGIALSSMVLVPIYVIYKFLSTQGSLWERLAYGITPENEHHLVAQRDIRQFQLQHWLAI

[7] = DRUGMATRIX: Sodium/nucleoside co-transporter radioligand binding (ligand: nitrobenzylthioinosine); type: cell membranes, Cavia porcellus, Dunkin-Hartley, Cerebral cortex, Membrane; details: Not Active = under 50% inhibition at 10 µM
[8] = target: 5-hydroxytryptamine receptor 2B (Homo sapiens, UniProt P41595); type: cell membranes, CHO-K1, Membrane; details: cho-k1; further: in other assays of this panel Not Active means under 50% inhibition at 10 µM
5-hydroxytryptamine receptor 2B, sequence (P41595 whole entry): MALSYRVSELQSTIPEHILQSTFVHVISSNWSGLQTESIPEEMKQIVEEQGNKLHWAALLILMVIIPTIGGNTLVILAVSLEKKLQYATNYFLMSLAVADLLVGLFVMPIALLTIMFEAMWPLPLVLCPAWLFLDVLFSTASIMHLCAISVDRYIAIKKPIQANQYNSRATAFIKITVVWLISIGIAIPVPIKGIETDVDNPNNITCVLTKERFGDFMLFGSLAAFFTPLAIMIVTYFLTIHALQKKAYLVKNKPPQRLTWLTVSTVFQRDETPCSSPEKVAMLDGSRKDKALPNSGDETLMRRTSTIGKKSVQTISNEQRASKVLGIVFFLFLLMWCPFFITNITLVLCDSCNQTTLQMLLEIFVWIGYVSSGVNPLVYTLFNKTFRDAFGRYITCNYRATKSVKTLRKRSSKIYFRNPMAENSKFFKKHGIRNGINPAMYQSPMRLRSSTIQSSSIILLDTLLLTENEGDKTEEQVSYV

Histamine H2 receptor = Histamine H2 receptor (Homo sapiens, UniProt P25021); type: cell membranes, CHO-K1, Membrane; details: cho-k1; further: in other assays of this panel Not Active means under 50% inhibition at 10 µM
Histamine H2 receptor, sequence (P25021 whole entry): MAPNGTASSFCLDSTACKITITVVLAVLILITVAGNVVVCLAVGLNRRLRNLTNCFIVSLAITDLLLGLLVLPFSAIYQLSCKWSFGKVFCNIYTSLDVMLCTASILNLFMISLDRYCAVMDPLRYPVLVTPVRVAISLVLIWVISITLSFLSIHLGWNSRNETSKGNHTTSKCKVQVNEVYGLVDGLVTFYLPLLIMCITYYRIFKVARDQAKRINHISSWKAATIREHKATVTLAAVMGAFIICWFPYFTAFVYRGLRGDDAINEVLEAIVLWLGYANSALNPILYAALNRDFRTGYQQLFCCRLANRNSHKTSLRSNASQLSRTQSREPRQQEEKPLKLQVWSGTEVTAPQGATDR

[9] = DRUGMATRIX: Platelet-Derived Growth Factor (PDGF) radioligand binding (ligand: [125I] PDGF); type: cell-based; details: nih3t3; Not Active = under 50% inhibition at 10 µM
[10] = DRUGMATRIX: Imidazoline I2, Central radioligand binding (ligand: [3H] Idazoxan); type: cell membranes, Rattus norvegicus, Wistar, Cerebral cortex, Membrane; details: Not Active = under 50% inhibition at 10 µM
[11] = DRUGMATRIX: GABAA, Chloride Channel, TBOB radioligand binding (ligand: [3H] TBOB); type: cell membranes, Rattus norvegicus, Wistar, Cerebral cortex, Membrane; details: Not Active = under 50% inhibition at 10 µM
[12] = DRUGMATRIX: beta-Lactamase enzyme inhibition (substrate: Nitrocefin); parameters: species or system Bacillus cereus; details: Not Active = under 50% inhibition at 10 µM

5-hydroxytryptamine receptor 6, sequence (P50406 whole entry): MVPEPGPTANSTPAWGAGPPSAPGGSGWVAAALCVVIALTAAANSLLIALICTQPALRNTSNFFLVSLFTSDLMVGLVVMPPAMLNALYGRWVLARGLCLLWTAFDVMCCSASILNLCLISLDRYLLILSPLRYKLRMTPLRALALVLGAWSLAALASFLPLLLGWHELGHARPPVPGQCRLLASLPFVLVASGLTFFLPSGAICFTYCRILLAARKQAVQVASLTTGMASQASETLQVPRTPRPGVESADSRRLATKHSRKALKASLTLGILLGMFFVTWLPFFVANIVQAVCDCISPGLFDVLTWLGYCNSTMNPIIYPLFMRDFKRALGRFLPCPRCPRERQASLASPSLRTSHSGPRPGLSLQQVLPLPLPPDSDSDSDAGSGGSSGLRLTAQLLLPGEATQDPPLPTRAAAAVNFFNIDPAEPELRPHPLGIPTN

Oc1cccc2cccnc12 [OXYQUINOLINE]
Not Active: IC50 [1] | IC50 [2] | Ki [2] | IC50 (Thromboxane-A synthase) | IC50 (D(4) dopamine receptor) | IC50 [3] | Ki [3] | IC50 [4] | IC50 (Glycine receptor) | IC50 (D(3) dopamine receptor) | IC50 [5] | IC50 [6] | IC50 [7] | Ki [7] | IC50 [8] | IC50 (Histamine H2 receptor) | IC50 [9] | Ki [9] | IC50 [10] | Ki [10] | IC50 [11] | Ki [11] | IC50 [12] | Ki [12]

CN(C)[C@@H]1C(O)=C(C(N)=O)C(=O)[C@@]2(O)C(O)=C3C(=O)c4c(O)cccc4[C@@](C)(O)[C@H]3[C@H](O)[C@@H]12 [OXYTETRACYCLINE]
Not Active: IC50 [1] | IC50 [2] | Ki [2] | IC50 (Thromboxane-A synthase) | IC50 (D(4) dopamine receptor) | IC50 [3] | Ki [3] | IC50 [4] | IC50 (Glycine receptor) | IC50 (D(3) dopamine receptor) | IC50 [5] | IC50 [6] | IC50 [7] | Ki [7] | IC50 [8] | IC50 (Histamine H2 receptor) | IC50 [9] | Ki [9] | IC50 [10] | Ki [10] | IC50 [11] | Ki [11] | IC50 [12] | Ki [12]

CC(C)(S)[C@@H](N)C(=O)O [PENICILLAMINE]
Not Active: IC50 [1] | IC50 [2] | Ki [2] | IC50 (Thromboxane-A synthase) | IC50 (D(4) dopamine receptor) | IC50 [3] | Ki [3] | IC50 [4] | IC50 (Glycine receptor) | IC50 (D(3) dopamine receptor) | IC50 [5] | IC50 [6] | IC50 [7] | Ki [7] | IC50 [8] | IC50 (Histamine H2 receptor) | IC50 [9] | Ki [9] | IC50 [10] | Ki [10] | IC50 [11] | Ki [11] | IC50 [12] | Ki [12]

CC(=O)CCCCn1c(=O)c2c(ncn2C)n(C)c1=O [PENTOXIFYLLINE]
Not Active: IC50 [1] | IC50 [2] | Ki [2] | IC50 (Thromboxane-A synthase) | IC50 (D(4) dopamine receptor) | IC50 [3] | Ki [3] | IC50 [4] | IC50 (Glycine receptor) | IC50 (D(3) dopamine receptor) | IC50 [5] | IC50 [6] | IC50 [7] | Ki [7] | IC50 [8] | IC50 (Histamine H2 receptor) | IC50 [9] | Ki [9] | IC50 [10] | Ki [10] | IC50 [11] | Ki [11] | IC50 [12] | Ki [12]

O=C1NC(=O)C(c2ccccc2)(c2ccccc2)N1 [PHENYTOIN]
Not Active: IC50 [1] | IC50 [2] | Ki [2] | IC50 (Thromboxane-A synthase) | IC50 (D(4) dopamine receptor) | IC50 [3] | Ki [3] | IC50 [4] | IC50 (Glycine receptor) | IC50 (D(3) dopamine receptor) | IC50 [5] | IC50 [6] | IC50 [7] | Ki [7] | IC50 [8] | IC50 (Histamine H2 receptor) | IC50 [9] | Ki [9] | IC50 [10] | Ki [10] | IC50 [11] | Ki [11] | IC50 [12] | Ki [12]
